Source: US12479843B2, “Spiro ring-containing quinazoline compounds” (WIGEN BIOMEDICINE TECHNOLOGY (SHANGHAI) CO., LTD., priority 2019, dated 2025)

Tests used:
[1] = system: pERK level in H358 cells; test: pERK and ERK protein content assay in H358 cells (ELISA); assay type: cell-based; details: Homo sapiens, NCI-H358, compound 1 μM, 24 h, pERK/ERK ratio compared with DMSO group, read-out: Inhibition rate (%) of pERK level
Experimental: H358 cells were seeded in a 24-well plate. After one day of growth, a test compound (at a concentration of 1 μM) was added. After 24 h of action of the compound, the cells were lysed, and the cell lysate was transferred to a 96-well ELISA plate. The levels of pERK and ERK in the lysate were measured using an ELISA kit (abcam 176660). The ratio of pERK to ERK was calculated and compared with that of the DMSO group, and the percentage of inhibition of pERK activity by the compound was calculated.

[2] = system: H358 cells; test: Antiproliferative activity against H358 cells (Cell Titer Glow, ultra-low attachment plate); assay type: cell-based; details: Homo sapiens, NCI-H358, 72 h, 96-well ultra-low attachment plate, three days after addition of compound, Cell Titer Glow
Experimental: 2500 H358 cells were seeded in a 96-well ultra-low attachment plate (corning, 7007). After one day of growth, a serially diluted compound (a maximum concentration of 5 μM, 5-fold dilution, a total of five doses) was added. Three days after the addition of the compound, Cell Titer Glow (Promega, G9681) was added to evaluate pellet growth, and the IC50 value was calculated.

Row | SMILES | IC50 [2] | inhibition at 1 µM [1]
1 | C=C(F)C(=O)N1CC2(CCN(c3nc(OC4CCN(CCOC)CC4)nc4c(OCC(F)F)c(-c5c(C)ccc6[nH]ncc56)c(C5CC5)cc34)CC2)C1 [Compound 3] | < 300 nM | > 90%
2 | C=Cc1cc2c(N3CCC4(CC3)CN(C(=O)C(=C)F)C4)nc(OC3CCN(CCOC)CC3)nc2c(OCC)c1-c1c(C)ccc2[nH]ncc12 [Compound 4] | < 300 nM | > 90%
3 | C=CC(=O)N1CC2(CCN(c3nc(OC4CCN(CCOC)CC4)nc4c(N(C)CC(F)(F)F)c(-c5c(C)ccc6[nH]ncc56)c(C5CC5)cc34)CC2)C1 [Compound 7] | 300 to 1000 nM | 50 to 90%
4 | C=CC(=O)N1CC2(CCN(c3nc(OC4CCN(CCOC)CC4)nc4c(N5CCC5)c(-c5c(C)ccc6[nH]ncc56)c(C5CC5)cc34)CC2)C1 [Compound 8] | 300 to 1000 nM | 50 to 90%
5 | C=CC(=O)N1CC2(CCN(c3nc(OC4CCN(CCOC)CC4)nc4c(N5CC(F)(F)C5)c(-c5c(C)ccc6[nH]ncc56)c(C5CC5)cc34)CC2)C1 [Compound 9] | < 300 nM | > 90%
6 | C=CC(=O)N1CC2(CCN(c3nc(OC4CCN(CCOC)CC4)nc4c(OCC(F)(F)F)c(-c5c(C)ccc6[nH]ncc56)ccc34)CC2)C1 [Compound 10] | 300 to 1000 nM | 50 to 90%
7 | C=CC(=O)N1CC2(CCN(c3nc(OC4CCN(CCOC)CC4)nc4c(OCC(F)(F)F)c(-c5c(C)ccc6[nH]ncc56)c(F)cc34)CC2)C1 [Compound 11] | < 300 nM | > 90%
8 | C=CC(=O)N1CC2(CCN(c3nc(OC4CCN(CCOC)CC4)nc4c(OCC(F)(F)F)c(-c5c(C)ccc6[nH]ncc56)c(Cl)cc34)CC2)C1 [Compound 12] | < 300 nM | > 90%
9 | C=CC(=O)N1CC2(CCN(c3nc(OC4CCN(CCOC)CC4)nc4c(OCC(F)(F)F)c(-c5c(C)ccc6[nH]ncc56)c(C)cc34)CC2)C1 [Compound 13] | 300 to 1000 nM | > 90%
10 | C=CC(=O)N1CC2(CCN(c3nc(OC4CCN(CCOC)CC4)nc4c(OCC(F)(F)F)c(-c5c(C)ccc6[nH]ncc56)c(CC)cc34)CC2)C1 [Compound 14] | 300 to 1000 nM | > 90%
11 | C=CC(=O)N1CC2(CCN(c3nc(OC4CCN(CCOC)CC4)nc4c(OCC(F)(F)F)c(-c5c(C)ccc6[nH]ncc56)c(C(C)C)cc34)CC2)C1 [Compound 15] | < 300 nM | > 90%
12 | C#Cc1cc2c(N3CCC4(CC3)CN(C(=O)C=C)C4)nc(OC3CCN(CCOC)CC3)nc2c(OCC(F)(F)F)c1-c1c(C)ccc2[nH]ncc12 [Compound 16] | 300 to 1000 nM | 50 to 90%
13 | C=C(C)C(=O)N1CC2(CCN(c3nc(OC4CCN(CCOC)CC4)nc4c(OCC(F)(F)F)c(-c5c(C)ccc6[nH]ncc56)c(C5CC5)cc34)CC2)C1 [Compound 17] | < 300 nM | > 90%
14 | C=C(C#N)C(=O)N1CC2(CCN(c3nc(OC4CCN(CCOC)CC4)nc4c(OCC(F)(F)F)c(-c5c(C)ccc6[nH]ncc56)c(C5CC5)cc34)CC2)C1 [Compound 18] | 300 to 1000 nM | 50 to 90%
15 | C=C(C(=O)N1CC2(CCN(c3nc(OC4CCN(CCOC)CC4)nc4c(OCC(F)(F)F)c(-c5c(C)ccc6[nH]ncc56)c(C5CC5)cc34)CC2)C1)C(F)(F)F [Compound 19] | 300 to 1000 nM | 50 to 90%
16 | C=C(C(=O)N1CC2(CCN(c3nc(OC4CCN(CCOC)CC4)nc4c(OCC(F)(F)F)c(-c5c(C)ccc6[nH]ncc56)c(C5CC5)cc34)CC2)C1)c1cnccn1 [Compound 20] | < 300 nM | > 90%
17 | C=C(C(=O)N1CC2(CCN(c3nc(OC4CCN(CCOC)CC4)nc4c(OCC(F)(F)F)c(-c5c(C)ccc6[nH]ncc56)c(C5CC5)cc34)CC2)C1)c1cncnc1 [Compound 21] | < 300 nM | > 90%
18 | C=C(C(=O)N1CC2(CCN(c3nc(OC4CCN(CCOC)CC4)nc4c(OCC(F)(F)F)c(-c5c(C)ccc6[nH]ncc56)c(C5CC5)cc34)CC2)C1)n1ccnc1 [Compound 22] | 300 to 1000 nM | 50 to 90%
19 | C=C(C(=O)N1CC2(CCN(c3nc(OC4CCN(CCOC)CC4)nc4c(OCC(F)(F)F)c(-c5c(C)ccc6[nH]ncc56)c(C5CC5)cc34)CC2)C1)n1cncn1 [Compound 23] | < 300 nM | > 90%

The next lines start with results.

Row | IC50 [2] | SMILES | inhibition at 1 µM [1]
20 | 300 to 1000 nM | C=C(C(=O)N1CC2(CCN(c3nc(OC4CCN(CCOC)CC4)nc4c(OCC(F)(F)F)c(-c5c(C)ccc6[nH]ncc56)c(C5CC5)cc34)CC2)C1)n1cccc1 [Compound 24] | 50 to 90%
21 | < 300 nM | C=C(C(=O)N1CC2(CCN(c3nc(OC4CCN(CCOC)CC4)nc4c(OCC(F)(F)F)c(-c5c(C)ccc6[nH]ncc56)c(C5CC5)cc34)CC2)C1)n1ccnn1 [Compound 25] | > 90%
22 | 300 to 1000 nM | C=CC(=O)N1CC2(C1)CN(c1nc(OC3CCN(CCOC)CC3)nc3c(OCC(F)(F)F)c(-c4c(C)ccc5[nH]ncc45)c(C4CC4)cc13)C2 [Compound 26] | 50 to 90%
23 | 300 to 1000 nM | C=CC(=O)N1CCC2(CC1)CN(c1nc(OC3CCN(CCOC)CC3)nc3c(OCC(F)(F)F)c(-c4c(C)ccc5[nH]ncc45)c(C4CC4)cc13)C2 [Compound 27] | 50 to 90%
24 | < 300 nM | C=C(F)C(=O)N1CC2(CCN(c3nc(OC4CCN(CCOC)CC4)nc4c(OCC(F)(F)F)c(-c5c(F)ccc6cn[nH]c56)c(C5CC5)cc34)CC2)C1 [Compound 34] | > 90%
25 | 300 to 1000 nM | C=CC(=O)N1CC2(CCN(c3nc(OC4CCN(CCOC)CC4)nc4c(OCC(F)(F)F)c(-c5c(F)ccc6[nH]cnc56)c(C5CC5)cc34)CC2)C1 [Compound 37] | 50 to 90%
26 | 300 to 1000 nM | C=C(F)C(=O)N1CC2(CCN(c3nc(OC4CCN(CCOC)CC4)nc4c(OCC(F)(F)F)c(-c5c(F)ccc6[nH]cnc56)c(C5CC5)cc34)CC2)C1 [Compound 38] | > 90%
27 | < 300 nM | C=CC(=O)N1CC2(CCN(c3nc(OC4CCN(CCOC)CC4)nc4c(OCC(F)(F)F)c(-c5c(C)ccc6[nH]nnc56)c(C5CC5)cc34)CC2)C1 [Compound 39] | > 90%
28 | < 300 nM | C=C(F)C(=O)N1CC2(CCN(c3nc(OC4CCN(CCOC)CC4)nc4c(OCC(F)(F)F)c(-c5c(C)ccc6[nH]nnc56)c(C5CC5)cc34)CC2)C1 [Compound 40] | > 90%
29 | < 300 nM | C=CC(=O)N1CC2(CCN(c3nc(OC4CCN(CCOC)CC4)nc4c(OCC(F)(F)F)c(-c5c(C)ccc6cc[nH]c(=O)c56)c(C5CC5)cc34)CC2)C1 [Compound 41] | > 90%
30 | 300 to 1000 nM | C=C(F)C(=O)N1CC2(CCN(c3nc(OC4CCN(CCOC)CC4)nc4c(OCC(F)(F)F)c(-c5c(C)ccc6cc[nH]c(=O)c56)c(C5CC5)cc34)CC2)C1 [Compound 42] | > 90%
31 | < 300 nM | C=CC(=O)N1CC2(CCN(c3nc(OC4CCN(CCOC)CC4)nc4c(OCC(F)(F)F)c(-c5c(C)ccc6nc[nH]c(=O)c56)c(C5CC5)cc34)CC2)C1 [Compound 43] | > 90%
32 | < 300 nM | C=C(F)C(=O)N1CC2(CCN(c3nc(OC4CCN(CCOC)CC4)nc4c(OCC(F)(F)F)c(-c5c(C)ccc6nc[nH]c(=O)c56)c(C5CC5)cc34)CC2)C1 [Compound 44] | > 90%
33 | < 300 nM | C=CC(=O)N1CC2(CCN(c3nc(OC4CCN(CCOC)CC4)nc4c(OCC(F)(F)F)c(-c5c(O)cccc5F)c(C5CC5)cc34)CC2)C1 [Compound 45] | > 90%
34 | < 300 nM | C=C(F)C(=O)N1CC2(CCN(c3nc(OC4CCN(CCOC)CC4)nc4c(OCC(F)(F)F)c(-c5c(O)cccc5F)c(C5CC5)cc34)CC2)C1 [Compound 46] | > 90%
35 | < 300 nM | C=CC(=O)N1CC2(CCN(c3nc(OC4CCN(CCOC)CC4)nc4c(OCC(F)(F)F)c(-c5c(N)cccc5F)c(C5CC5)cc34)CC2)C1 [Compound 47] | > 90%
36 | 300 to 1000 nM | C=C(F)C(=O)N1CC2(CCN(c3nc(OC4CCN(CCOC)CC4)nc4c(OCC(F)(F)F)c(-c5c(N)cccc5F)c(C5CC5)cc34)CC2)C1 [Compound 48] | > 90%
37 | < 300 nM | C=CC(=O)N1CC2(CCN(c3nc(OC4CCN(CCOC)CC4)nc4c(OCC(F)(F)F)c(-c5c(N)c(Cl)cc(Cl)c5F)c(C5CC5)cc34)CC2)C1 [Compound 49] | > 90%
38 | < 300 nM | C=C(F)C(=O)N1CC2(CCN(c3nc(OC4CCN(CCOC)CC4)nc4c(OCC(F)(F)F)c(-c5c(N)c(Cl)cc(Cl)c5F)c(C5CC5)cc34)CC2)C1 [Compound 50] | > 90%
39 | < 300 nM | C=CC(=O)N1CC2(CCN(c3nc(OC4CCN(CCOC)CC4)nc4c(OCC(F)(F)F)c(-c5ccccc5F)c(C5CC5)cc34)CC2)C1 [Compound 51] | > 90%
40 | < 300 nM | C=C(F)C(=O)N1CC2(CCN(c3nc(OC4CCN(CCOC)CC4)nc4c(OCC(F)(F)F)c(-c5ccccc5F)c(C5CC5)cc34)CC2)C1 [Compound 52] | > 90%
41 | < 300 nM | C=CC(=O)N1CC2(CCN(c3nc(OC4CCN(CCOC)CC4)nc4c(OCC(F)(F)F)c(-c5c(F)cccc5F)c(C5CC5)cc34)CC2)C1 [Compound 53] | > 90%
42 | < 300 nM | C=C(F)C(=O)N1CC2(CCN(c3nc(OC4CCN(CCOC)CC4)nc4c(OCC(F)(F)F)c(-c5c(F)cccc5F)c(C5CC5)cc34)CC2)C1 [Compound 54] | > 90%
